According to patent US8048879B2, “Substituted 4,5,6,7-tetrahydro-isoxazolo[4,5-c]pyridine compounds and use thereof for producing medicaments” (Gruenenthal GmbH, priority 2005, dated 2011):

The compounds below were run on batrachotoxin (BTX) binding site of the sodium channel (assay: Affinity for the batrachotoxin (BTX) binding site of the sodium channel, [3H]-batrachotoxinin A20 α-benzoate, rat cerebrocortex synaptosomes). Conditions: test concentration not given.
With `O=C(NC1CCCC1)c1noc2c1CN(C(=O)NCc1ccc(F)cc1)CC2` [Example 2, 6,7-dihydro-4H-isoxazolo[4,5-c]pyridine-3,5-dicarboxylic acid 3-cyclopentyl amide 5-(4-fluorobenzyl amide)] the “BTX inhibition (rat) % inhibition” value was 83%. For `O=C(Nc1ccccc1)c1noc2c1CN(C(=O)Nc1ccc(OC(F)(F)F)cc1)CC2` [Example 3, 6,7-dihydro-4H-isoxazolo[4,5-c]pyridine-3,5-dicarboxylic acid 3-phenyl amide 5-[(4-trifluoromethoxy-phenyl) amide]], the “BTX inhibition (rat) % inhibition” value was 73%. In the case of `Cc1ccc(NC(=O)N2CCc3onc(C(=O)NCCc4ccccc4)c3C2)cc1[N+](=O)[O-]` [Example 4, 6,7-dihydro-4H-isoxazolo[4,5-c]pyridine-3,5-dicarboxylic acid 5-[(4-methyl-3-nitro-phenyl) amide] 3-(phenethyl amide)], the “BTX inhibition (rat) % inhibition” value is reported as 80%. For `O=C(NCCc1ccccc1)c1noc2c1CN(C(=O)Nc1cccc(F)c1)CC2` [Example 8, 6,7-dihydro-4H-isoxazolo[4,5-c]pyridine-3,5-dicarboxylic acid 5-[(3-fluorophenyl) amide] 3-(phenethyl amide)], the “BTX inhibition (rat) % inhibition” value was 72%. In the case of `Cc1ccc(NC(=O)N2CCc3onc(C(=O)NCc4cccs4)c3C2)cc1[N+](=O)[O-]` [Example 9, 6,7-dihydro-4H-isoxazolo[4,5-c]pyridine-3,5-dicarboxylic acid 5-[(4-methyl-3-nitro-phenyl) amide] 3-[(thiophen-2-ylmethyl) amide]], the “BTX inhibition (rat) % inhibition” value is reported as 43%. `O=C(NCc1ccccc1)c1noc2c1CN(C(=O)NCCc1ccccc1)CC2` [Example 10, 6,7-dihydro-4H-isoxazolo[4,5-c]pyridine-3,5-dicarboxylic acid 3-benzyl amide 5-(phenethyl amide)] was tested, and the “BTX inhibition (rat) % inhibition” value was 64%. For `N#Cc1cccc(NC(=O)N2CCc3onc(C(=O)NCc4cccs4)c3C2)c1` [Example 12, 6,7-dihydro-4H-isoxazolo[4,5-c]pyridine-3,5-dicarboxylic acid 5-[(3-cyano-phenyl) amide]3-[(thiophen-2-ylmethyl) amide]], the “BTX inhibition (rat) % inhibition” value was 47%. `CCOc1ccc(NC(=O)N2CCc3onc(C(=O)Nc4ccccc4)c3C2)cc1` [Example 13, 6,7-dihydro-4H-isoxazolo[4,5-c]pyridine-3,5-dicarboxylic acid 5-[(4-ethoxy-phenyl) amide] 3-phenyl amide] was tested, and the “BTX inhibition (rat) % inhibition” value was 58%. With `Cc1ccc(NC(=O)N2CCc3onc(C(=O)NCc4ccc(F)cc4)c3C2)cc1[N+](=O)[O-]` [Example 14, 6,7-dihydro-4H-isoxazolo[4,5-c]pyridine-3,5-dicarboxylic acid 3-(4-fluorobenzyl amide) 5-[(4-methyl-3-nitro-phenyl) amide]] the “BTX inhibition (rat) % inhibition” value was 70%. `CC(NC(=O)N1CCc2onc(C(=O)NCCc3ccccc3)c2C1)c1cccc2ccccc12` (stereo not shown) [Example 18, 6,7-dihydro-4H-isoxazolo[4,5-c]pyridine-3,5-dicarboxylic acid 5-[(1-naphthalen-1-yl-ethyl) amide]3-(phenethyl amide)] was tested, and the “BTX inhibition (rat) % inhibition” value was 75%. `CCOc1ccc(NC(=O)N2CCc3onc(C(=O)NCc4ccc(F)cc4)c3C2)cc1` [Example 21, 6,7-dihydro-4H-isoxazolo[4,5-c]pyridine-3,5-dicarboxylic acid 5-[(4-ethoxy-phenyl) amide] 3-(4-fluorobenzyl amide)] was tested, and the “BTX inhibition (rat) % inhibition” value was 68%. `COc1ccc(Cl)cc1NC(=O)N1CCc2onc(C(=O)NCCc3ccccc3)c2C1` [Example 22, 6,7-dihydro-4H-isoxazolo[4,5-c]pyridine-3,5-dicarboxylic acid 5-[(5-chloro-2-methoxyphenyl) amide] 3-(phenethyl amide)] was tested, and the “BTX inhibition (rat) % inhibition” value was 56%. With `CCOC(=O)c1cccc(NC(=O)N2CCc3onc(C(=O)NCc4ccc(C)o4)c3C2)c1` [Example 23, 3-({3-[(5-methyl-furan-2-ylmethyl)-carbamoyl]-6,7-dihydro-4H-isoxazolo[4 5-c]pyridine-5-carbonyl}-amino)-benzoic acid ethyl ester] the “BTX inhibition (rat) % inhibition” value was 46%. `O=C(O)CC1(CC(=O)N2CCc3onc(C(=O)Nc4ccccc4)c3C2)CCCC1` [Example 28, {1-[2-oxo-2-(3-phenylcarbamoyl-6,7-dihydro-4H-isoxazolo[4,5-c]pyridin-5-yl)-ethyl]-cyclopentyl}acetic acid] was tested, and the “BTX inhibition (rat) % inhibition” value was 60%. With `O=C(c1noc2c1CN(S(=O)(=O)c1ccc(OC(F)(F)F)cc1)CC2)N(CCc1ccccc1)Cc1ccccc1` [Example 32, 5-(4-trifluoromethoxy-benzenesulfonyl)-4,5,6,7-tetrahydro-isoxazolo[4,5-c]pyridine-3-carboxylic acid benzyl-phenethyl amide] the “BTX inhibition (rat) % inhibition” value was 59%. In the case of `O=C(NC1CCN(Cc2ccc3ccccc3c2)C1)c1noc2c1CN(S(=O)(=O)c1ccccc1)CC2` (stereo not shown) [Example 33, 5-benzenesulfonyl-4,5,6,7-tetrahydro-isoxazolo[4,5-c]pyridine-3-carboxylic acid (1-naphthalen-2-ylmethyl-pyrrolidin-3-yl) amide], the “BTX inhibition (rat) % inhibition” value is reported as 93%. With `O=C(c1noc2c1CN(S(=O)(=O)c1ccc(F)cc1)CC2)N1CCN(c2ncnc3sccc23)CC1` [Example 34] the “BTX inhibition (rat) % inhibition” value was 42%. `O=C(NCCCc1ccccc1)c1noc2c1CN(S(=O)(=O)c1ccc(F)cc1)CC2` [Example 35, 5-(4-fluoro-benzenesulfonyl)-4,5,6,7-tetrahydro-isoxazolo[4,5-c]pyridine-3-carboxylic acid (3-phenyl-propyl) amide] was tested, and the “BTX inhibition (rat) % inhibition” value was 59%. `O=C(NC1CCN(Cc2ccc(C(F)(F)F)cc2)C1)c1noc2c1CN(S(=O)(=O)c1ccc(F)cc1)CC2` (stereo not shown) [Example 39, 5-(4-fluoro-benzenesulfonyl)-4,5,6,7-tetrahydro-isoxazolo[4,5-c]pyridine-3-carboxylic acid [1-(4-trifluoromethyl-benzyl)-pyrrolidin-3-yl]amide] was tested, and the “BTX inhibition (rat) % inhibition” value was 79%. With `O=C(NC1CCCC1OCc1ccccc1)c1noc2c1CN(S(=O)(=O)c1cc(Cl)ccc1Cl)CC2` (stereo not shown) [Example 40, 5-(2,5-dichloro-benzenesulfonyl)-4,5,6,7-tetrahydro-isoxazolo[4,5-c]pyridine-3-carboxylic acid (2-benzyloxy-cyclopentyl) amide] the “BTX inhibition (rat) % inhibition” value was 65%. In the case of `O=C(c1noc2c1CN(S(=O)(=O)c1ccc(F)cc1)CC2)N1CC=C(c2ccc(F)cc2)CC1` [Example 42, [5-(4-fluoro-benzenesulfonyl)-4,5,6,7-tetrahydro-isoxazolo[4,5-c]pyridin-3-yl]-[4-(4-fluorophenyl)-3,6-dihydro-2H-pyridin-1-yl]-methanone], the “BTX inhibition (rat) % inhibition” value is reported as 54%. With `CC12CCC(C(=O)N3CCc4onc(C(=O)NCCN5CCCC5)c4C3)(OC1=O)C2(C)C` (stereo not shown) [Example 51, 5-(4,7,7-trimethyl-3-oxo-2-oxa-bicyclo[2.2.1]heptane-1-carbonyl)-4,5,6,7-tetrahydro-isoxazolo[4,5-c]pyridine-3-carboxylic acid (2-pyrrolidin-1-yl-ethyl) amide] the “BTX inhibition (rat) % inhibition” value was 42%. With `O=C(NCCc1ccccc1Cl)c1noc2c1CN(S(=O)(=O)c1cc(Cl)ccc1Cl)CC2` [Example 52, 5-(2,5-dichloro-benzenesulfonyl)-4,5,6,7-tetrahydro-isoxazolo[4,5-c]pyridine-3-carboxylic acid [2-(2-chlorophenyl)-ethyl] amide] the “BTX inhibition (rat) % inhibition” value was 44%. `O=C(c1noc2c1CN(S(=O)(=O)c1cc(Cl)ccc1Cl)CC2)N(CCc1ccccc1)Cc1ccccc1` [Example 59, 5-(2,5-dichloro-benzenesulfonyl)-4,5,6,7-tetrahydro-isoxazolo[4,5-c]pyridine-3-carboxylic acid benzyl-phenethyl amide] was tested, and the “BTX inhibition (rat) % inhibition” value was 58%. For `O=C(NCCN1CCOCC1)c1noc2c1CN(S(=O)(=O)c1cc(Cl)c(Cl)s1)CC2` [Example 63, 5-(4,5-dichloro-thiophene-2-sulfonyl)-4,5,6,7-tetrahydro-isoxazolo[4,5-c]pyridine-3-carboxylic acid (2-morpholin-4-yl-ethyl) amide], the “BTX inhibition (rat) % inhibition” value was 55%. `Cc1ccc(N2CCN(C(=O)c3noc4c3CN(S(=O)(=O)c3cc(Cl)ccc3Cl)CC4)CC2)c(C)c1` [Example 65, [5-(2,5-dichloro-benzenesulfonyl)-4,5,6,7-tetrahydro-isoxazolo[4,5-c]pyridin-3-yl]-[4-(2,4-dimethyl-phenyl)-piperazin-1-yl]-methanone] was tested, and the “BTX inhibition (rat) % inhibition” value was 49%. With `O=C(c1noc2c1CN(S(=O)(=O)c1cccc(C(F)(F)F)c1)CC2)N(CCc1ccccc1)Cc1ccccc1` [Example 68, 5-(3-trifluoromethyl-benzenesulfonyl)-4,5,6,7-tetrahydro-isoxazolo[4,5-c]pyridine-3-carboxylic acid benzyl-phenethyl amide] the “BTX inhibition (rat) % inhibition” value was 51%. `CN(C)S(=O)(=O)N1CCc2onc(C(=O)NCCc3ccc(Cl)cc3)c2C1` [Example 76, 5-dimethylsulfamoyl-4,5,6,7-tetrahydro-isoxazolo[4,5-c]pyridine-3-carboxylic acid [2-(4-chlorophenyl)-ethyl] amide] was tested, and the “BTX inhibition (rat) % inhibition” value was 41%. With `O=C(NC1CCCC1)c1noc2c1CN(C(=O)COc1ccc(Cl)cc1)CC2` [Example 81, 5-[2-(4-chlorophenoxy)-acetyl]-4,5,6,7-tetrahydro-isoxazolo[4,5-c]pyridine-3-carboxylic acid cyclopentyl amide] the “BTX inhibition (rat) % inhibition” value was 65%. `Cc1ccc(S(=O)(=O)N2CCc3onc(C(=O)N4CCN(CCC5CCCCC5)CC4)c3C2)cc1` [Example 82, [4-(2-cyclohexyl-ethyl)-piperazin-1-yl]-[5-(toluene-4-sulfonyl)-4,5,6,7-tetrahydro-isoxazolo[4,5-c]pyridin-3-yl]-methanone] was tested, and the “BTX inhibition (rat) % inhibition” value was 69%. With `C=CCOc1ccc(CN(Cc2ccco2)C(=O)c2noc3c2CN(S(=O)(=O)c2cccc(C(F)(F)F)c2)CC3)cc1` [Example 87, 5-(3-trifluoromethyl-benzenesulfonyl)-4,5,6,7-tetrahydro-isoxazolo[4,5-c]pyridine-3-carboxylic acid (4-allyloxy-benzyl)-furan-2-ylmethyl amide] the “BTX inhibition (rat) % inhibition” value was 41%.
